# Measurements taken from ChEMBL document CHEMBL6087456 (J Med Chem, 2025).
# Legend:
# [1] = system: Plasmodium falciparum; test: Antiparasitic activity against Plasmodium falciparum 3D7 assessed as parasitic reduction ratio at 10 times EC50 pretreated for 120 hrs followed by compound removal and replacement of media without compound measured after 28 days by cell killing assay; format: functional
# [2] = Oral bioavailability in overnight-fasted male Sprague-Dawley rat at 3 mg/kg measured upto 72 hrs by LCMS analysis; format: ADME, organism-based; details: in vivo
# [3] = Metabolic stability in human liver microsomes assessed as intrinsic clearance at 0.5 uM incubated for 60 mins in presence of NADPH by tandem quadrupole-Time of Flight MS; format: ADME, Microsome; details: 1 h
# [4] = system: Plasmodium falciparum; test: Antiparasitic activity against asexual blood stage Plasmodium falciparum 3D7 incubated for 72 hrs by SYBR Green assay; format: functional, organism-based; details: 3D7, 72 h
# [5] = Ratio of drug concentration in Sprague-Dawley rat brain to plasma at 1 uM measured for 5 to 60 mins by LCMS analysis; format: ADME, cell-free; details: time 5-60 min
# [6] = Metabolic stability in Sprague-Dawley rat hepatocytes assessed as intrinsic clearance at 0.5 uM measured per 0.5 million cells incubated for 240 mins by tandem quadrupole-Time of Flight MS; format: ADME, cell-based, Hepatocyte; details: 4 h
# [7] = Kinetic solubility of compound at pH 6.5 measured after 30 mins by nephelometry; format: physicochemical; details: buffer, pH 6.5, read-out: Kinetic_solubility
# [8] = Oral absorption in overnight-fasted male Sprague-Dawley rat at 3 mg/kg measured upto 72 hrs by LCMS analysis; format: ADME, organism-based; details: in vivo
# [9] = Cmax in overnight-fasted male Sprague-Dawley rat at 3 mg/kg, po or 1 mg/kg, iv measured upto 72 hrs by LCMS analysis; format: ADME, organism-based; details: in vivo
# [10] = biological target: Albumin (Homo sapiens, UniProt P02768); test: Protein binding to albumin (unknown origin) in ALBUMAX medium; format: ADME; details: read-out: PB (converted)
# [11] = biological target: Dihydroorotate dehydrogenase (quinone), mitochondrial (Homo sapiens, UniProt Q02127); test: Inhibition of C-terminal His6-tagged recombinant human DHODH (29 to 395 residues) N-terminally truncated soluble domain extracted from Escherichia coli phage resistant BL21-DE3 using CoQD/DHA/DCIP as substrates
# [12] = Metabolic stability in human hepatocytes assessed as intrinsic clearance at 0.5 uM measured per 1.5 million cells incubated for 240 mins by tandem quadrupole-Time of Flight MS; format: ADME, cell-based, Hepatocyte; details: 4 h
# [13] = Selectivity index, ratio of IC50 for N-terminal His6-tagged recombinant Plasmodium falciparum DHODH (158 to 569 residues) N-terminally truncated soluble domain extracted from Escherichia coli phage resistant BL21-DE3 to IC50 for C-terminal His6-tagged recombinant Plasmodium vivax DHODH (158 to …
# [14] = biological target: T1, Dihydroorotate dehydrogenase (quinone), mitochondrial (Plasmodium falciparum (isolate 3D7), UniProt Q08210); test: Inhibition of N-terminal His6-tagged recombinant Plasmodium falciparum DHODH (158 to 569 residues) N-terminally truncated soluble domain extracted from Escherichia coli phage resistant BL21-DE3 using CoQD/DHA/DCIP as substrates
# T1 sequence (Q08210 whole entry): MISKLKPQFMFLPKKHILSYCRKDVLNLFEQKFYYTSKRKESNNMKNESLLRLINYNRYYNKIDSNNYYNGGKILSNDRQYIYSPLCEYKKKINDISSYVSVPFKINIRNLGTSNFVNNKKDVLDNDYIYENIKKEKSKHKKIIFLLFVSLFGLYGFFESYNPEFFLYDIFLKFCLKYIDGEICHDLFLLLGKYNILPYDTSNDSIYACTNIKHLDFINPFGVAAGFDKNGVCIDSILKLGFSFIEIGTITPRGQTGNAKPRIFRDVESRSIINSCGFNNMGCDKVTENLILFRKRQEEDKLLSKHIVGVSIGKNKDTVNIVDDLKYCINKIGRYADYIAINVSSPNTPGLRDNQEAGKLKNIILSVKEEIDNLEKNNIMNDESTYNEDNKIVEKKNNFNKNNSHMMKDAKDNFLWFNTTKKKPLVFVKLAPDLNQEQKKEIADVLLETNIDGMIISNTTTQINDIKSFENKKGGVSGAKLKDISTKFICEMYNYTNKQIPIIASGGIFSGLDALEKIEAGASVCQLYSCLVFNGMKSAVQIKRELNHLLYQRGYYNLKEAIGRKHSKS
# [15] = Cytotoxicity against human HepG2 cells by Cell Titer Glo assay; format: toxicity, cell-based
# [16] = Plasma protein binding in rat measured for 6 hrs by rapid equilibrium dialysis; format: ADME, cell-free
# [17] = biological target: Cytochrome P450 2D6 (Homo sapiens, UniProt P10635); test: Inhibition of CYP2D6 in human liver microsomes; format: ADME, Microsome
# [18] = Protein binding in human hepatocytes; format: ADME, cell-based, Hepatocyte; details: read-out: PB (converted)
# [19] = biological target: T2, Cytochrome P450 1A2 (Homo sapiens, UniProt P05177); test: Inhibition of CYP1A2 in human liver microsomes; format: ADME, Microsome
# T2 sequence (P05177 whole entry): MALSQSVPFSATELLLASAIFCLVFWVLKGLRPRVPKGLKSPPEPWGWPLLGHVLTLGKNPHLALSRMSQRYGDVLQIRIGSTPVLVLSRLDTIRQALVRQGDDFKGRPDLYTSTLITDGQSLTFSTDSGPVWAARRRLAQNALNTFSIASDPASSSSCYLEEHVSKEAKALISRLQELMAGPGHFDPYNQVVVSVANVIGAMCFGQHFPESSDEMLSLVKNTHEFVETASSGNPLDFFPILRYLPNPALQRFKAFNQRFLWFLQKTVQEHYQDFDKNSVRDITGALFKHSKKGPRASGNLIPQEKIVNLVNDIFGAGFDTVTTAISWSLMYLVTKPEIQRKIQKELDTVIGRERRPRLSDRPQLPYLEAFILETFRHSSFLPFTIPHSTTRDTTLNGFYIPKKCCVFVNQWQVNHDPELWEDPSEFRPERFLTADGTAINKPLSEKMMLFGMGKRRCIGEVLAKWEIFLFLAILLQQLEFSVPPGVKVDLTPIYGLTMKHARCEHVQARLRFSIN
# [20] = Half life in overnight-fasted male Sprague-Dawley rat at 3 mg/kg, po or 1 mg/kg, iv measured upto 72 hrs by LCMS analysis; format: ADME, organism-based; details: in vivo
# [21] = biological target: Cytochrome P450 3A4 (Homo sapiens, UniProt P08684); test: Inhibition of CYP3A4 in human liver microsomes; format: ADME, Microsome
# [22] = system: Plasmodium falciparum; test: Antiparasitic activity against Plasmodium falciparum 3D7 assessed as lag time before killing at 10 times EC50 pretreated for 120 hrs followed by compound removal and replacement of media without compound measured after 28 days by cell killing assay; format: functional
# [23] = Plasma protein binding in human measured for 6 hrs by rapid equilibrium dialysis; format: ADME, cell-free
# [24] = Cytotoxicity against human Jurkat cells by Cell Titer Glo assay; format: toxicity, cell-based
# [25] = biological target: T3, Cytochrome P450 2B6 (Homo sapiens, UniProt P20813); test: Inhibition of CYP2B6 in human liver microsomes; format: ADME, Microsome
# T3 sequence (P20813 whole entry): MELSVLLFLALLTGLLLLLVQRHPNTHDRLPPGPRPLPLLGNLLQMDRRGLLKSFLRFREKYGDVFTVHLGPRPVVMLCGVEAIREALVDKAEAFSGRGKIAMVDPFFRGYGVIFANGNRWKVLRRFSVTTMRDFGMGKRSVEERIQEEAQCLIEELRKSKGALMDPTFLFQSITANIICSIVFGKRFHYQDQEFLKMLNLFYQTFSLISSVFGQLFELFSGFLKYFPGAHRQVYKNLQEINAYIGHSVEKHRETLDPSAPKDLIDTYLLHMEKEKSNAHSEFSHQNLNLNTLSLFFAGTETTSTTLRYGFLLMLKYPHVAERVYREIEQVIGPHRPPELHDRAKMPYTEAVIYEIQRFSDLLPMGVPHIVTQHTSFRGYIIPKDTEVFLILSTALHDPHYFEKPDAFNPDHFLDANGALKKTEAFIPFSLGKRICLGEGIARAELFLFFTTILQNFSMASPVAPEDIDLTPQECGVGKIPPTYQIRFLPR
# [26] = biological target: T4, Cytochrome P450 2C8 (Homo sapiens, UniProt P10632); test: Inhibition of CYP2C8 in human liver microsomes; format: ADME, Microsome
# T4 sequence (P10632 whole entry): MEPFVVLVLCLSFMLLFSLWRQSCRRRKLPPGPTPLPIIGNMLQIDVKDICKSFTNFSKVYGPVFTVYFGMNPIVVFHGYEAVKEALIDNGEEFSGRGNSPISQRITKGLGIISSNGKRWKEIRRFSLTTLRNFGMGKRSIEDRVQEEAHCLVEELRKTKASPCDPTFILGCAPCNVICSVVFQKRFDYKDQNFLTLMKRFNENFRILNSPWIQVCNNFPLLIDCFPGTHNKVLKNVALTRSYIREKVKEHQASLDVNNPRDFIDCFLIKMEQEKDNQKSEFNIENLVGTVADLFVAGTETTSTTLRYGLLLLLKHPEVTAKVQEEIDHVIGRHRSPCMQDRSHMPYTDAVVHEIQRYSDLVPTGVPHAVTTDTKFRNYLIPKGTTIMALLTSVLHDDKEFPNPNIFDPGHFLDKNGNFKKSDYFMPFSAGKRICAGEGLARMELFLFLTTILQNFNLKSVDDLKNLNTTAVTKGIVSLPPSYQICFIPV
# [27] = Drug excretion in Sprague-Dawley rat urine at 1 mg/kg, iv; format: ADME, organism-based; details: read-out: Drug excretion
# [28] = Volume of distribution at steady state in overnight-fasted male Sprague-Dawley rat at 3 mg/kg, po or 1 mg/kg, iv measured upto 72 hrs by LCMS analysis; format: ADME, organism-based; details: in vivo
# Sequence of Dihydroorotate dehydrogenase (quinone), mitochondrial (Homo sapiens, UniProt Q02127) (Q02127 whole entry, the tested form may be a part): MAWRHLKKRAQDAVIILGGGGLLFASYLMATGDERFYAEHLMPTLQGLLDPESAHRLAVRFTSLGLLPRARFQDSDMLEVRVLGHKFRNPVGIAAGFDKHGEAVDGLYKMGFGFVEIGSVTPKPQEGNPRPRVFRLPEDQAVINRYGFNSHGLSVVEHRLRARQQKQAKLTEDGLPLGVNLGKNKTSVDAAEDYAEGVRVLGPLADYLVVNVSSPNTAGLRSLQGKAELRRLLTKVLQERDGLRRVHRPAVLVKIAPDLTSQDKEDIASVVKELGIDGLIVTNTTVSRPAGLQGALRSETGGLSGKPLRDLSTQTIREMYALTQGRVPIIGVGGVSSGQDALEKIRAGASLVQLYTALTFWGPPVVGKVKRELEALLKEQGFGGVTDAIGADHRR
# Sequence of Albumin (P02768 whole entry, the tested form may be a part): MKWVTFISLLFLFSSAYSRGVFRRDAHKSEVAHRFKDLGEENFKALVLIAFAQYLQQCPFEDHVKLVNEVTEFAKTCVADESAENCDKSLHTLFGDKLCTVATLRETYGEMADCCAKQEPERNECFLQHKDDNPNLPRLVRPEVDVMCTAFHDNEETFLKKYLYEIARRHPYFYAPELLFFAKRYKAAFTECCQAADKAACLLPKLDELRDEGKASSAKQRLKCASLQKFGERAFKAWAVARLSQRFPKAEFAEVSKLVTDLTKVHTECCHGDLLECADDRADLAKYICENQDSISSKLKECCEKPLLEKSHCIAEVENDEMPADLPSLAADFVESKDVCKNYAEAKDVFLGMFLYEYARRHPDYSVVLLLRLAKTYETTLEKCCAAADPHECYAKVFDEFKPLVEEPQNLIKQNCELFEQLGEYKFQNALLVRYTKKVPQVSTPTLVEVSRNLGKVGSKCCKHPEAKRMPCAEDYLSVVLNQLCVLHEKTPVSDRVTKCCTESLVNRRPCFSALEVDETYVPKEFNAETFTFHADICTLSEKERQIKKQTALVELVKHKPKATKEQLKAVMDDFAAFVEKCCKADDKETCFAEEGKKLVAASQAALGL
# Sequence of Cytochrome P450 3A4 (P08684 whole entry): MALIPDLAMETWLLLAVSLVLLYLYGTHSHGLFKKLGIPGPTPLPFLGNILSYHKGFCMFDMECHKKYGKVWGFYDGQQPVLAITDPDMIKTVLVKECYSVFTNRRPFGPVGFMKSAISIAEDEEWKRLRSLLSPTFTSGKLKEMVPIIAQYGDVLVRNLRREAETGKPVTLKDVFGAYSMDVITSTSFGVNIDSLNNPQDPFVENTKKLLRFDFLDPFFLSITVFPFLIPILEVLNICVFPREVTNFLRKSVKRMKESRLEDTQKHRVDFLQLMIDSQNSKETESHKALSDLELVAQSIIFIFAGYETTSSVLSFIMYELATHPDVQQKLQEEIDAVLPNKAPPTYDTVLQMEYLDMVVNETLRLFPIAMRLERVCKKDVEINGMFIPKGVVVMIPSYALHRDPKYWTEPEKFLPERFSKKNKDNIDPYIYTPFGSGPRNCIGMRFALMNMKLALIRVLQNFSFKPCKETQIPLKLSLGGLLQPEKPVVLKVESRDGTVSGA
# Sequence of Cytochrome P450 2D6 (P10635 whole entry): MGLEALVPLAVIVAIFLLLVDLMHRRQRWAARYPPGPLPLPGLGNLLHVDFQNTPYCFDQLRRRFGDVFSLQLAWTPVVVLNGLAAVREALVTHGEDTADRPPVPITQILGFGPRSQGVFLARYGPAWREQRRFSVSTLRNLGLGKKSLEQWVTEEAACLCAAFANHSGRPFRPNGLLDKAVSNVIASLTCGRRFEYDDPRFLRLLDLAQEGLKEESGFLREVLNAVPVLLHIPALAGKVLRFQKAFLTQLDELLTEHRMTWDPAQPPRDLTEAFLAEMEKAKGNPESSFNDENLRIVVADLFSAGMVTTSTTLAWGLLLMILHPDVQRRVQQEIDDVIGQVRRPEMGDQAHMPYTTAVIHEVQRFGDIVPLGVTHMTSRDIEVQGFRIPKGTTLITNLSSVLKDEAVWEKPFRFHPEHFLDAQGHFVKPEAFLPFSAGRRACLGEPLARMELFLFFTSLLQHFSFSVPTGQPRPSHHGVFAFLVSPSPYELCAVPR
smiles,measurement,setting,value
CCc1nc(N)nc(N)c1-c1ccc(Cl)cc1 [PYRIMETHAMINE],log(activity),[1],3.5
CCn1cc(C2CC2)c2c(Cc3ccc(C(F)(F)F)nc3)n(C)nc2c1=O,F,[2],65%
same,intrinsic clearance (CLint),[3],9 µL/min/mg
same,EC50,[4],22 nM
same,BPR,[5],0.65
same,CLH,[6],2.3 µL/min
same,solubility kinetic at 0.5 h,[7],130 µM
same,Fa at 72 h,[8],71%
same,Cmax,[9],4.4 µM
same,fraction unbound,[10],0.5
same,IC50,[11],> 100000 nM
same,CLH,[12],1.2 µL/min
CCOC(=O)c1nn(C)c(Cc2ccc(C(F)(F)F)nc2)c1C,EC50,[4],190 nM
same,Ratio IC50,[13],4
same,IC50,[14],360 nM
same,IC50,[11],> 100000 nM
Cn1nc2c(=O)n(C3CC3)ncc2c1[C@](N)(c1ccc(C(F)(F)F)c(Cl)c1)C1CC1,CC50,[15],> 20000 nM
same,PPB,[16],86%
same,IC50,[17],> 20000 nM
same,log(activity),[1],3.1
same,fraction unbound,[18],0.335
same,IC50,[19],> 20000 nM
same,t1/2,[20],17 h
same,IC50,[21],> 20000 nM
same,F,[2],79%
same,Time,[22],~26 h
same,intrinsic clearance (CLint),[3],< 3 µL/min/mg
same,EC50,[4],7 nM
same,PPB,[23],90.8%
same,CC50,[24],> 20000 nM
same,IC50,[25],> 20000 nM
same,IC50,[26],7000 nM
same,solubility kinetic at 0.5 h,[7],12.5 µM
same,dose excreted,[27],< 1%
same,Fa at 72 h,[8],81%
same,fraction unbound,[10],0.239
CCn1cc(C)c2c([C@H](O)c3ccc(C(F)(F)F)nc3)n(C)nc2c1=O,intrinsic clearance (CLint),[3],< 3 µL/min/mg
same,EC50,[4],22 nM
same,Vdss,[28],2.76 L/kg
same,IC50,[14],74 nM
same,solubility kinetic at 0.5 h,[7],160 µM
same,IC50,[11],> 100000 nM
